The test system of assay [1] is SW620 cells, KLF5 protein western blot, 24 h. Kind of assay: change in KLF5 protein levels, late-stage follow-up, counter-screen for KLF5 inhibitor project, western blot, chemiluminescence, SW620 colorectal cells (AID 588661). Conditions: measured here: KLF5 protein fold change vs DMSO; at 10 µM. For orientation: A counterscreen serves to expose hits that act by an unwanted route or on another target.

Assay [2] deals with Krueppel-like factor 5 (Homo sapiens) (UniProt Q13887). The assay is described as above. Conditions: SW620 cells, KLF5 protein western blot, 24 h; at 10 µM; stronger effect = higher value. In general terms: A western blot detects proteins with antibodies after separation by electrophoresis.

These results are taken from PubChem BioAssay AID588661 (The Scripps Research Institute Molecular Screening Center, 2011).

The source made the active and inactive calls.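 Rule for the calls: active = KLF5 protein level in colon cancer cells lowered or raised by 30% or more versus solvent-only cells; inactive = the rest.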

The inhibition is the change of the read-out against control, counted positive when it falls.

Chain of Krueppel-like factor 5 (Homo sapiens) (Q13887 whole entry, looked up): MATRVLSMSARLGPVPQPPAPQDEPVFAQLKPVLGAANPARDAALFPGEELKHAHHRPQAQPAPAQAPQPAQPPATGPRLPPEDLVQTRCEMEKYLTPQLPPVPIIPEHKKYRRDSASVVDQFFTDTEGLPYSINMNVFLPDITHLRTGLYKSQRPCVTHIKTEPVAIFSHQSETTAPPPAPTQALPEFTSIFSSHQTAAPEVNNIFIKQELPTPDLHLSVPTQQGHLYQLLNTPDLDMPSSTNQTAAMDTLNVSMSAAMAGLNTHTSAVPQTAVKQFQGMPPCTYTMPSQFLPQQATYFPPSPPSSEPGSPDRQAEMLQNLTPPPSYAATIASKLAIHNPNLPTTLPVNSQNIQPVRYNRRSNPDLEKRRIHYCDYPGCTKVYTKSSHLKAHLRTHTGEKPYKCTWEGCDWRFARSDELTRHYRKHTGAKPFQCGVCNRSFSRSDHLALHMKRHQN

`CN(C(=O)COC(=O)/C=C/c1cccc([N+](=O)[O-])c1)C1CCS(=O)(=O)C1` (configuration not stated): in assay [1], the signed fold change vs DMSO (negative = decrease) is -1.08. Moreover, in assay [2], the inhibition is 7.48% (inactive).
